Experimental data published in patent publication US20260124188A1, “mGluR receptor antagonists for use in prevention andor treatment of bone marrow lesions (BML) andor osteoporosis, cartilage loss, osteosclerosis and osteitis in a mammal” (Orphelion AB, priority 2022, published 2026).

Assay: Dissolution of TT001 in I.V. formulation vehicle
Format: physicochemical
Details: 0.1 to 10 mg/ml in 40% w/v HPβCD solution in water for injection; a couple of hours for complete dissolution
Protocol: FORMULATION METHOD FOR THE PREPARATION OF TT001 FOR I.V. DOSING, 0.1 to 10 mg/ml The formulation method is applicable at concentrations in formulation between 0.1 and 10 mg/mL corresponding to 0.262 and 26.2 μmol/mL • TT001 M.W.: 381.8 g/mol • 10 The dissolution of TT001 is moderate, allow a couple of hours for complete dissolution.
• Preparation of 40% w/v HPβCD solution in water for injection • Excipients Hydroxypropyl-β-cyclodextrin, Kleptose, Roquette (HPβCD) 400 mg (40% w/v) • Water for injection to 1 ml (1.13 g) • is Appearance Clear • Density 1.13 g/cm^3
• Preparation of TT001 I.V. formulations between 0.1 and 10 mg/ml • TT001 parent form 0.1-10 mg • Vehicle (40% w/v HPβCD solution in water for injection) to 1 ml (1.13 g) • Appearance Clear • Density 1.13 g/cm^3 • Comments

**Q.** Which dissolution does the source give for `C[C@@H](Oc1nnc(-c2ccncc2)n1C)c1cc(-c2cccc(Cl)c2)on1` [TT001, 4-[5-[(1R)-1-[5-(3-Chlorophenyl)-3-isoxazolyl]ethoxy]-4-methyl-4H-1,2,4-triazol-3-yl]pyridine] here?
**A.** The dissolution was “moderate”.
